From patent US6077840A, “Tetrahydrobenzindolone derivatives” (Meiji Seika Kaisha, Ltd., priority 1996, dated 2000)
pIC50: −log10 of the molar value.

Columns and labels:
progesterone receptor = molecular target: T1, progesterone receptor (Sus scrofa, UniProt D0EWS6); assay: progesterone receptor binding inhibition ([^3 H]-progesterone, hog uterus cytosol); set-up: species or system hogs; settings: [^3 H]-progesterone ligand, 60 min at 4° C., read-out: Inhibitory activity against progesterone receptor binding (IC50)
T1 construct: thereby preparing a cytosol containing progesterone receptor; from tissue; host or cells: hog uterus, cytosol (100,000×g supernatant)
T1 sequence (D0EWS6 1-934): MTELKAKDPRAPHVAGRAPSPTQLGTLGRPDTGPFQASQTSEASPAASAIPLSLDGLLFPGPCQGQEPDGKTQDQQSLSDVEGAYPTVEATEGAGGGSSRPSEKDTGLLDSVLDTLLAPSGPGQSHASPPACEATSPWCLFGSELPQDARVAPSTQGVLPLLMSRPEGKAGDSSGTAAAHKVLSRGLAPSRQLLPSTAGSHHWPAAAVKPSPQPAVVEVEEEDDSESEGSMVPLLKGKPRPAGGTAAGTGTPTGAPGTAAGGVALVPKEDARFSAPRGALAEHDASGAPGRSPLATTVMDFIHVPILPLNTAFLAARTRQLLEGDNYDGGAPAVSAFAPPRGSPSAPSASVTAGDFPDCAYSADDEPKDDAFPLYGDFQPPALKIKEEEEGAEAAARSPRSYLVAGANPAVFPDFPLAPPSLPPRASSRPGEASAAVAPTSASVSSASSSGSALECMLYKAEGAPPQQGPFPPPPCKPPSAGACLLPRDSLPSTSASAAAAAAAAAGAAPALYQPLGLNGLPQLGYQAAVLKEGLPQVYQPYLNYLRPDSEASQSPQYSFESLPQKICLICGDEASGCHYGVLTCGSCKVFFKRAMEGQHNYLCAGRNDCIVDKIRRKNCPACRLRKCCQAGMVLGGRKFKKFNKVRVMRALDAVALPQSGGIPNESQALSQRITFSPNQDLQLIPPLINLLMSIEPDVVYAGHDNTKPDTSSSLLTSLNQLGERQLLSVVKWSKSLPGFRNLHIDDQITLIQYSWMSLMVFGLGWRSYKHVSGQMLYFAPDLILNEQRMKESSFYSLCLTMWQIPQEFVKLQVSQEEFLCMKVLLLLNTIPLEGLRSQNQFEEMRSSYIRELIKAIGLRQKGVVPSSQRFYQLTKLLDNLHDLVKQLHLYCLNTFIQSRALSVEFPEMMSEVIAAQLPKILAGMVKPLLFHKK
Protocol: Uteri taken from hogs in 5 mM phosphate buffer were disrupted using Polytron homogenizer, and the resulting solution was centrifuged (100,000×g, 30 min) to separate the supernatant, thereby preparing a cytosol containing progesterone receptor. […] Then, 100 μl of a 0.5% activated carbon solution was added to the reaction solution, and the mixture was allowed to stand for 10 min and then centrifuged (2,000×g, 10 min). The radioactivity of the supernatant was measured with a liquid scintillation counter.
Separately, the radioactivity was measured in the same manner as described above, except that no test drug was added. Further, the radioactivity was measured in the same manner as described above, except that 10 μl of Medroxyprogesterone Acetate (MPA) (10 μg/ml) was added instead of the test drug. The radioactivity with no test drug added was defined as the amount of total binding of [^3 H]-progesterone to the cytosol, and the radioactivity with MPA added was defined as the amount of non-specific binding. The inhibition ratio was calculated from these measured values by the following equation to determine the binding inhibitory activity (IC50).
Inhibition ratio (%)= [formula]

[1] = Test on Toxicity upon Continuous Administration; format: in vivo; settings: 60 mg/kg, subcutaneous, 16 week-old male SD rats (five)
Protocol: A homogeneous suspension of the compound, according to the present invention, prepared in Example 8 in a 0.2% aqueous methyl cellulose solution was subcutaneously administered to 16 week-old male SD rats (five rats). The dose of the compound prepared in Example 8 was 60 mg/kg.

| pIC50 (progesterone receptor) | SMILES | also measured |
| --- | --- | --- |
| 7.38 | CO[C@H]1[C@H](OC)C=C2C=C3C(=C(C)C(=O)N3C)C[C@]2(C)[C@H]1C [Example 34, (4aR,5R,6R,7R)-6,7-Dimethoxy-4a,5,6,7-tetrahydro-1,3,4a,5-tetramethylbenz[f]indol-2(4H)-one] |  |
| 7.33 | CO[C@@H]1C=C2C=C3C(=C(C)C(=O)N3C)C[C@]2(C)[C@@H](C)[C@H]1OC(=O)c1cccs1 [Example 31, (4aR,5R,6R,7R)-7-Methoxy-4a,5,6,7-tetrahydro-1,3,4a,5-tetramethyl-6-(2-thiophenecarbonyloxy)benz[f]indol-2(4H)-one] |  |
| 7.00 | CCC(=O)O[C@H]1CC=C2C=C3C(=C(C)C(=O)N3C)C[C@]2(C)[C@H]1C [Example 113, (4aR,5R,6S)-6-Propionyloxy-4a,5,6,7-tetrahydro-1,3,4a,5-tetramethylbenz[f]indol-2(4H)-one] |  |
| 7.57 | CO[C@@H]1C=C2C=C3C(=C(C)C(=O)N3C)C[C@]2(C)[C@@H](C)[C@H]1OC(=O)c1ccco1 [Example 32, (4aR,5R,6R,7R)-6-(2-Furancarbonyloxy)-7-methoxy-4a,5,6,7-tetrahydro-1,3,4a,5-tetramethylbenz[f]indol-2(4H)-one] |  |
| 7.44 | CCO[C@H]1[C@H](OC)C=C2C=C3C(=C(C)C(=O)N3C)C[C@]2(C)[C@H]1C [Example 35, (4aR,5R,6R,7R)-6-Ethoxy-7-methoxy-4a,5,6,7-tetrahydro-1,3,4a,5-tetramethylbenz[f]indol-2(4H)-one] |  |
| 7.72 | CCCNC(=O)O[C@H]1CC=C2C=C3C(=C(C)C(=O)N3C)C[C@]2(C)[C@H]1C [Example 116, (4aR,5R,6S)-6-Propylcarbamoyloxy-4a,5,6,7-tetrahydro-1,3,4a,5-tetramethylbenz[f]indol-2(4H)-one] |  |
| 7.18 | CS[C@@H]1C=C2C=C3C(=C(C)C(=O)N3C)C[C@]2(C)[C@@H](C)[C@H]1OC(=O)n1ccnc1 [Example 99, (4aR,5R,6R,7R)-6-(Imidazol-1-ylcarbonyloxy)-7-methylthio-4a,5,6,7-tetrahydro-1,3,4a,5-tetramethylbenz[f]indol-2(4H)-one] |  |
| 7.51 | CC1=C2C[C@@]3(C)C(=CC[C@H](OC(=O)N4CCCC4)[C@@H]3C)C=C2N(C)C1=O [Example 117, (4aR,5R,6S)-6-(Pyrrolidin-1-ylcarbonyloxy)-4a,5,6,7-tetrahydro-1,3,4a,5-tetramethylbenz[f]indol-2(4H)-one] |  |
| 6.86 | CCS[C@@H]1C=C2C=C3C(=C(C)C(=O)N3C)C[C@]2(C)[C@@H](C)[C@H]1OC(=O)n1ccnc1 [Example 106, (4aR,5R,6R,7R)-7-Ethylthio-6-(imidazol-1-ylcarbonyloxy)-4a,5,6,7-tetrahydro-1,3,4a,5-tetramethylbenz[f]indol-2(4H)-one] |  |
| 7.29 | CCCO[C@H]1[C@H](OC)C=C2C=C3C(=C(C)C(=O)N3C)C[C@]2(C)[C@H]1C [Example 36, (4aR,5R,6R,7R)-7-Methoxy-6-propoxy-4a,5,6,7-tetrahydro-1,3,4a,5-tetramethylbenz[f]indol-2(4H)-one] |  |

Continued, compound first:

| SMILES | pIC50 (progesterone receptor) | also measured |
| --- | --- | --- |
| CO[C@@H]1C=C2C=C3C(=C(C)C(=O)N3C)C[C@]2(C)[C@@H](C)[C@H]1OC(C)=O [Example 25, (4aR,5R,6R,7R)-6-Acetoxy-7-methoxy-4a,5,6,7-tetrahydro-1,3,4a,5-tetramethylbenz[f]indol-2(4H)-one] | 7.60 |  |
| CCC(=O)O[C@H]1[C@H](OC(C)=O)C=C2C=C3C(=C(C)C(=O)N3C)C[C@]2(C)[C@H]1C [Example 3, (4aR,5R,6R,7R)-7-Acetoxy-6-propionyloxy-4a,5,6,7-tetrahydro-1,3,4a,5-tetramethylbenz[f]indol-2(4H)-one] | 7.55 |  |
| CCCNC(=O)O[C@H]1[C@H](SCC)C=C2C=C3C(=C(C)C(=O)N3C)C[C@]2(C)[C@H]1C [Example 107, (4aR,5R,6R,7R)-7-Ethylthio-6-propylcarbamoyloxy-4a,5,6,7-tetrahydro-1,3,4a,5-tetramethylbenz[f]indol-2(4H)-one] | 6.81 |  |
| CC1=C2C[C@@]3(C)C(=CC[C@H](OC(=O)n4ccnc4)[C@@H]3C)C=C2N(C)C1=O [Example 115, (4aR,5R,6S)-6-(Imidazol-1-ylcarbonyloxy)-4a,5,6,7-tetrahydro-1,3,4a,5-tetramethylbenz[f]indol-2(4H)-one] | 7.66 |  |
| CCS[C@@H]1C=C2C=C3C(=C(C)C(=O)N3C)C[C@]2(C)[C@@H](C)[C@H]1OC(=O)N1CCCC1 [Example 108, (4aR,5R,6R,7R)-7-Ethylthio-6-(pyrrolidin-1-ylcarbonyloxy)-4a,5,6,7-tetrahydro-1,3,4a,5-tetramethylbenz[f]indol-2(4H)-one] | 6.81 |  |
| CC(=O)O[C@@H]1C=C2C=C3C(=C(C)C(=O)N3C)C[C@]2(C)[C@@H](C)[C@H]1OC(=O)c1ccco1 [Example 4, (4aR,5R,6R,7R)-7-Acetoxy-6-(2-furancarbonyloxy)-4a,5,6,7-tetrahydro-1,3,4a,5-tetramethylbenz[f]indol-2(4H)-one] | 7.49 |  |
| C=CCO[C@H]1[C@H](OC)C=C2C=C3C(=C(C)C(=O)N3C)C[C@]2(C)[C@H]1C [Example 41, (4aR,5R,6R,7R)-7-Methoxy-6-(2-propenyloxy)-4a,5,6,7-tetrahydro-1,3,4a,5-tetramethylbenz[f]indol-2(4H)-one] | 7.36 |  |
| CCC(=O)O[C@H]1[C@H](OC)C=C2C=C3C(=C(C)C(=O)N3C)C[C@]2(C)[C@H]1C [Example 26, (4aR,5R,6R,7R)-7-Methoxy-6-propionyloxy-4a,5,6,7-tetrahydro-1,3,4a,5-tetramethylbenz[f]indol-2(4H)-one] | 7.77 |  |
| CCS[C@@H]1C=C2C=C3C(=C(C)C(=O)N3C)C[C@]2(C)[C@@H](C)[C@H]1O [Example 100, (4aR,5R,6R,7R)-7-Ethylthio-6-hydroxy-4a,5,6,7-tetrahydro-1,3,4a,5-tetramethrlbenz[f]indol-2(4H)-one] | 6.92 |  |
| CCC(=O)O[C@H]1[C@H](SC)C=C2C=C3C(=C(C)C(=O)N3C)C[C@]2(C)[C@H]1C [Example 97, (4aR,5R,6R,7R)-7-Methylthio-6-propionyloxy-4a,5,6,7-tetrahydro-1,3,4a,5-tetramethylbenz[f]indol-2(4H)-one] | 7.19 |  |
| CCS[C@@H]1C=C2C=C3C(=C(C)C(=O)N3C)C[C@]2(C)[C@@H](C)[C@H]1OC(=O)CC [Example 101, (4aR,5R,6R,7R)-7-Ethylthio-6-propionyloxy-4a,5,6,7-tetrahydro-1,3,4a,5-tetramethylbenz[f]indol-2(4H)-one] | 6.79 |  |
| CCC(=O)O[C@H]1[C@H](OC(=O)CC)C=C2C=C3C(=C(C)C(=O)N3C)C[C@]2(C)[C@H]1C [Example 8, (4aR,5R,6R,7R)-6,7-Dipropionyloxy-4a,5,6,7-tetrahydro-1,3,4a,5-tetramethylbenz[f]indol-2(4H)-one] |  | special symptoms [1]: without no special symptom; survival of rats [1]: All the rats remained survived |
